Laboratory results from US11072612B2, “NLRP3 modulators” (INNATE TUMOR IMMUNITY, INC., priority 2016, dated 2021).

Key:
Format in all cases: cell-based
[1] = target: T1, hNLRP3 (Homo sapiens, UniProt Q96P20); experiment: hNLRP3 agonist assay: IL-1β production in PMA-differentiated THP-1 cells (ELISA); conditions: Table 2, 4 hours, IL-1β by ELISA
T1 construct: THP-1 cells were purchased from the American Type Culture Collection; host or cells: THP-1 cells, PMA-differentiated

[2] = target: T2, TLR8 (Homo sapiens, UniProt Q9NR97); experiment: TLR8 EC50 assay; conditions: Table 2
T2 sequence (Q9NR97 27-1041): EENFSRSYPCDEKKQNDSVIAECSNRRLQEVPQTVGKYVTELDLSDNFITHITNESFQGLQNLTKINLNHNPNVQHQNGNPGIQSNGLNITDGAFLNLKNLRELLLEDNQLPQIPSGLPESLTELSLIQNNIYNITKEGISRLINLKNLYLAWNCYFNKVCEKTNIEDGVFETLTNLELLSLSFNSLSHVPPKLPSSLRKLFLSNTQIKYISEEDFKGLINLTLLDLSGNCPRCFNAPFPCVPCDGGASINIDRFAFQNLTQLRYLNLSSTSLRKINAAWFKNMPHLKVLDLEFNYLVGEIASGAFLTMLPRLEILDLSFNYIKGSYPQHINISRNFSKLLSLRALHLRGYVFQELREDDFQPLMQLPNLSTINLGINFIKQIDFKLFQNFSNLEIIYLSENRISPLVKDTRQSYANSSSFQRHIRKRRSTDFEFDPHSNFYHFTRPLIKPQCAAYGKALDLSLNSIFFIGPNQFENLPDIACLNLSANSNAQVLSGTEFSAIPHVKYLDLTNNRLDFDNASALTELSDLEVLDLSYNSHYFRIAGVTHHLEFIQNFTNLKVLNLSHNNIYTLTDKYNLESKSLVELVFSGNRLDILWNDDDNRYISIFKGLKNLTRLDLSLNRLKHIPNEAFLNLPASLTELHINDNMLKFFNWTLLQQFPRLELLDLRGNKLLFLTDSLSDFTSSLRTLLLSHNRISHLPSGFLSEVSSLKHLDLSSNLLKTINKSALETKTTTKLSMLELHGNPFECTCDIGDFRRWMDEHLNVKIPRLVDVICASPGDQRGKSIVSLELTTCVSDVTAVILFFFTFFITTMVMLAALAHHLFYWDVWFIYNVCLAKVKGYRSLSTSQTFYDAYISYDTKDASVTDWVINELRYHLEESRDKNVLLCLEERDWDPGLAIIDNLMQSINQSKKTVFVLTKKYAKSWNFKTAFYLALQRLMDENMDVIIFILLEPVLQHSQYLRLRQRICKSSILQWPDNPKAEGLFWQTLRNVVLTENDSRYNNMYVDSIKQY

[3] = target: T3, TLR7 (Homo sapiens, UniProt Q9NYK1); experiment: TLR7 EC50 assay; conditions: Table 2
T3 sequence (Q9NYK1 27-1049): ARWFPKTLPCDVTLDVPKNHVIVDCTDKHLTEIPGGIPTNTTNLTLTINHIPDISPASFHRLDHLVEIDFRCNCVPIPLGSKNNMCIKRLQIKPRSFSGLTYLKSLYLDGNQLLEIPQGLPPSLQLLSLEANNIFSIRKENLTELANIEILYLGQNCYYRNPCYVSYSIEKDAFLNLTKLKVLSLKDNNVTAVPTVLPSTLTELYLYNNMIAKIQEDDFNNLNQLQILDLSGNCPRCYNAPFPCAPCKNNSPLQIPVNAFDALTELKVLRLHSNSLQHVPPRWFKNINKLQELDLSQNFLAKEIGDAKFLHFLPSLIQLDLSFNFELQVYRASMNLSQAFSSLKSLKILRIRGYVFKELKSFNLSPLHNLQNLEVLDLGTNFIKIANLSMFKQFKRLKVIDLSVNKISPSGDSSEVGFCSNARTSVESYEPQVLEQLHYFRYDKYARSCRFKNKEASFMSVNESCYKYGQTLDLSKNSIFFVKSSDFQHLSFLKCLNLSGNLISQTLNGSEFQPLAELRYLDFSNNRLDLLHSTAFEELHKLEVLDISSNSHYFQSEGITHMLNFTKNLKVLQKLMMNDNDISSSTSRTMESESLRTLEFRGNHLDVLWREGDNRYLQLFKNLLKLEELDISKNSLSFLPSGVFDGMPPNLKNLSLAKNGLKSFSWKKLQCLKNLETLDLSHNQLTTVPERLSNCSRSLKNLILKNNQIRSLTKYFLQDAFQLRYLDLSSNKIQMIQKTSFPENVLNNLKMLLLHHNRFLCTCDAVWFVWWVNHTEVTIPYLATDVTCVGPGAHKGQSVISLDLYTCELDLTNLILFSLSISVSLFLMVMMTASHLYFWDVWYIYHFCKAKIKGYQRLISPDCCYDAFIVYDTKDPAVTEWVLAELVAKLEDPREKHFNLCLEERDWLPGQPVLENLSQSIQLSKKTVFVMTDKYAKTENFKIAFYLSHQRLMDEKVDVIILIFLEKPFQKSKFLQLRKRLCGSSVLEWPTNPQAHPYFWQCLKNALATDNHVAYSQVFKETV

T1 sequence (Q96P20 whole entry): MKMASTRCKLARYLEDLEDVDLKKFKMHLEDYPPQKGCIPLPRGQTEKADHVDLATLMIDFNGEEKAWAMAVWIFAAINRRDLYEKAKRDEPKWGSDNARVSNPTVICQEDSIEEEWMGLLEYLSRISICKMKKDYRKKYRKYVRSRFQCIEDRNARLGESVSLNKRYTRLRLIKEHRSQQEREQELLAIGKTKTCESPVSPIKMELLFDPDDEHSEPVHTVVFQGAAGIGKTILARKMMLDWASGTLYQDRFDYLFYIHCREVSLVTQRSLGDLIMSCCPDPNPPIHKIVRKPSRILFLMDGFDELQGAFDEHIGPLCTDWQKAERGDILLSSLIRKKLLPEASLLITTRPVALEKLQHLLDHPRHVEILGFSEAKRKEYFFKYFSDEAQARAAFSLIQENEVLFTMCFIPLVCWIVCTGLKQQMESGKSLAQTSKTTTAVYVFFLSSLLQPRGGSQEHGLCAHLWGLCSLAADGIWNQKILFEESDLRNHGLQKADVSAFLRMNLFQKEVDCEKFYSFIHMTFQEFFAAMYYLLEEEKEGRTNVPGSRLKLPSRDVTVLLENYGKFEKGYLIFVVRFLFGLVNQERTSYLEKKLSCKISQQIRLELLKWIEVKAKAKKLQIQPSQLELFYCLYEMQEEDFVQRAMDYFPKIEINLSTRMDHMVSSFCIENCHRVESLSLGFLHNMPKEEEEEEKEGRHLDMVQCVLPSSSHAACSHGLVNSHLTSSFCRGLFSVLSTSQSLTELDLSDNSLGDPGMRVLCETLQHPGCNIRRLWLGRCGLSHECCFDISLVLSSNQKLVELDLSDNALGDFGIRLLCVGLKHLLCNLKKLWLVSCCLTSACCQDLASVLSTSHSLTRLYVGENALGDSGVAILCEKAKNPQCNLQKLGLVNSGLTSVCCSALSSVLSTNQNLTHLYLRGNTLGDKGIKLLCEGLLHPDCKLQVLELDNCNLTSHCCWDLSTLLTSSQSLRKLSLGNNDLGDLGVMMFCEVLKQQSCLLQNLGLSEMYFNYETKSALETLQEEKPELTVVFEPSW

Row | SMILES | EC50 [1] [µM] | EC50 [2] [µM] | EC50 [3] [µM]
1 | Nc1nc2cc(-c3nccs3)ccc2c2[nH]c(CCCO)nc12 [Compound 184, 3-[4-amino-7-(1,3-thiazol-2-yl)-1H-imidazo[4,5-c]quinolin-2-yl]propan-1-ol] | > 100 | > 100 | > 100
2 | Nc1nc2cc(-c3ccccn3)ccc2c2[nH]c(CCCO)nc12 [Compound 185, 3-(4-amino-7-pyridin-2-yl-1H-imidazo[4,5-c]quinolin-2-yl)propan-1-ol] | ≤ 1 | > 100 | > 100
3 | Nc1nc2cc(-c3ccsc3)ccc2c2[nH]c(CCCO)nc12 [Compound 186, 3-(4-amino-7-thiophen-3-yl-1H-imidazo[4,5-c]quinolin-2-yl)propan-1-ol] | ≤ 1 | > 100 | > 100
4 | Nc1nc2cc(-c3cccs3)ccc2c2[nH]c(CCCO)nc12 [Compound 187, 3-(4-amino-7-thiophen-2-yl-1H-imidazo[4,5-c]quinolin-2-yl)propan-1-ol] | ≤ 1 | > 100 | > 100
5 | Nc1nc2cc(-c3cncnc3)ccc2c2[nH]c(CCCO)nc12 [Compound 188, 3-(4-amino-7-pyrimidin-5-yl-1H-imidazo[4,5-c]quinolin-2-yl)propan-1-ol] | 20 to 100 | > 100 | > 100
6 | Nc1nc2cc(-c3cc[nH]n3)ccc2c2[nH]c(CCCO)nc12 [Compound 189, 3-[4-amino-7-(1H-pyrazol-3-yl)-1H-imidazo[4,5-c]quinolin-2-yl]propan-1-ol] | ≤ 1 | > 100 | > 100
7 | Cn1nccc1-c1ccc2c(c1)nc(N)c1nc(CCCO)[nH]c12 [Compound 190, 3-[4-amino-7-(2-methylpyrazol-3-yl)-1H-imidazo[4,5-c]quinolin-2-yl]propan-1-ol] | 20 to 100 | > 100 | > 100
8 | Nc1nc2cc(-c3cnc4ccccc4c3)ccc2c2[nH]c(CCCO)nc12 [Compound 191, 3-(4-amino-7-quinolin-3-yl-1H-imidazo[4,5-c]quinolin-2-yl)propan-1-ol] | > 100 | > 100 | > 100
9 | Nc1nc2cc(-c3cncc4ccccc34)ccc2c2[nH]c(CCCO)nc12 [Compound 192, 3-(4-amino-7-isoquinolin-4-yl-1H-imidazo[4,5-c]quinolin-2-yl)propan-1-ol] | > 100 | > 100 | > 100
10 | Cn1cc(-c2ccc3c(c2)nc(N)c2nc(CCCO)[nH]c23)cn1 [Compound 193, 3-[4-amino-7-(1-methylpyrazol-4-yl)-1H-imidazo[4,5-c]quinolin-2-yl]propan-1-ol] | 20 to 100 | > 100 | > 100
11 | Cc1cc(C)n(-c2ccc3c(c2)nc(N)c2nc(CCCO)[nH]c23)n1 [Compound 194, 3-[4-amino-7-(3,5-dimethylpyrazol-1-yl)-1H-imidazo[4,5-c]quinolin-2-yl]propan-1-ol] | 20 to 100 | > 100 | 20 to 100
12 | Nc1nc2cc(-c3cnoc3)ccc2c2[nH]c(CCCO)nc12 [Compound 195, 3-[4-amino-7-(1,2-oxazol-4-yl)-1H-imidazo[4,5-c]quinolin-2-yl]propan-1-ol] | > 100 | > 100 | > 100
13 | Nc1nc2cc(C3CCOCC3)ccc2c2[nH]c(CCCO)nc12 [Compound 196, 3-[4-amino-7-(oxan-4-yl)-1H-imidazo[4,5-c]quinolin-2-yl]propan-1-ol] | > 100 | > 100 | > 100
14 | Cc1ccccc1-c1ccc2c(c1)nc(N)c1nc(CCCO)[nH]c12 [Compound 199, 3-[4-amino-7-(2-methylphenyl)-1H-imidazo[4,5-c]quinolin-2-yl]propan-1-ol] | > 100 | > 100 | > 100
15 | Nc1nc2cc(-c3ccccc3Cl)ccc2c2[nH]c(CCCO)nc12 [Compound 200, 3-[4-amino-7-(2-chlorophenyl)-1H-imidazo[4,5-c]quinolin-2-yl]propan-1-ol] | > 100 | > 100 | > 100
16 | COc1ccccc1-c1ccc2c(c1)nc(N)c1nc(CCCO)[nH]c12 [Compound 201, 3-[4-amino-7-(2-methoxyphenyl)-1H-imidazo[4,5-c]quinolin-2-yl]propan-1-ol] | > 100 | > 100 | > 100
17 | N#Cc1ccccc1-c1ccc2c(c1)nc(N)c1nc(CCCO)[nH]c12 [Compound 202, 2-[4-amino-2-(3-hydroxypropyl)-1H-imidazo[4,5-c]quinolin-7-yl]benzonitrile] | > 100 | > 100 | > 100
18 | Nc1nc2cc(-c3ccccc3F)ccc2c2[nH]c(CCCO)nc12 [Compound 203, 3-[4-amino-7-(2-fluorophenyl)-1H-imidazo[4,5-c]quinolin-2-yl]propan-1-ol] | > 100 | > 100 | > 100
19 | Nc1nc2cc(-c3cccc(Cl)c3)ccc2c2[nH]c(CCCO)nc12 [Compound 204, 3-[4-amino-7-(3-chlorophenyl)-1H-imidazo[4,5-c]quinolin-2-yl]propan-1-ol] | > 100 | > 100 | > 100
20 | Cc1cccc(-c2ccc3c(c2)nc(N)c2nc(CCCO)[nH]c23)c1 [Compound 205, 3-[4-amino-7-(3-methylphenyl)-1H-imidazo[4,5-c]quinolin-2-yl]propan-1-ol] | 20 to 100 | > 100 | > 100
21 | COc1cccc(-c2ccc3c(c2)nc(N)c2nc(CCCO)[nH]c23)c1 [Compound 206, 3-[4-amino-7-(3-methoxyphenyl)-1H-imidazo[4,5-c]quinolin-2-yl]propan-1-ol] | > 100 | > 100 | > 100
22 | N#Cc1cccc(-c2ccc3c(c2)nc(N)c2nc(CCCO)[nH]c23)c1 [Compound 207, 3-[4-amino-2-(3-hydroxypropyl)-1H-imidazo[4,5-c]quinolin-7-yl]benzonitrile] | > 100 | > 100 | > 100
23 | Nc1nc2cc(-c3cccc(F)c3)ccc2c2[nH]c(CCCO)nc12 [Compound 208, 3-[4-amino-7-(3-fluorophenyl)-1H-imidazo[4,5-c]quinolin-2-yl]propan-1-ol] | > 100 | > 100 | > 100
24 | Nc1nc2cc(-c3ccc(Cl)cc3)ccc2c2[nH]c(CCCO)nc12 [Compound 209, 3-[4-amino-7-(4-chlorophenyl)-1H-imidazo[4,5-c]quinolin-2-yl]propan-1-ol] | > 100 | > 100 | > 100
25 | Cc1ccc(-c2ccc3c(c2)nc(N)c2nc(CCCO)[nH]c23)cc1 [Compound 210, 3-[4-amino-7-(4-methylphenyl)-1H-imidazo[4,5-c]quinolin-2-yl]propan-1-ol] | > 100 | > 100 | > 100
